In ChEMBL document CHEMBL4699554, “Biological Evaluation of Selected Flavonoids as Inhibitors of MNKs Targeting Acute Myeloid Leukemia” (J Nat Prod, 2020):
Active and inactive are the calls of the source. The rule behind the calls is not given here.

Assays:
[1] = target: T1, MAP kinase-interacting serine/threonine-protein kinase 2 (Homo sapiens, UniProt Q9HBH9); experiment: Inhibition of N-terminal GST-tagged recombinant human full length MNK2 expressed in baculovirus expression system at 10 uM incubated for 1 hr by Kinase Tracer 236 based LanthaScreen Eu kinase binding assay relative to control
Target sequence in this assay (Q9HBH9 whole entry, looked up): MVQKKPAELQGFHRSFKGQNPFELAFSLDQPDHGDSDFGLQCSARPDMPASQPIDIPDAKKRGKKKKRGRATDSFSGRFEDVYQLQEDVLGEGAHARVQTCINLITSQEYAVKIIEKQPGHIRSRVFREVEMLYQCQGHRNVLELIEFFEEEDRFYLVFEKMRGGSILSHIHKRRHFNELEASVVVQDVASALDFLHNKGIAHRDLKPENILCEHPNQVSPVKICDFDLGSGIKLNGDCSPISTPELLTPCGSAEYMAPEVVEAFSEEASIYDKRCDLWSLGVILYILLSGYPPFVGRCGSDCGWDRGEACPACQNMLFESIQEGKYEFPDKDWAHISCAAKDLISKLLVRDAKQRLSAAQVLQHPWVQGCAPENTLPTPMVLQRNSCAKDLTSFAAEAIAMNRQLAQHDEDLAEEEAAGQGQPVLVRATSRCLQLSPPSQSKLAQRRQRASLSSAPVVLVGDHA

[2] = target: T1, MAP kinase-interacting serine/threonine-protein kinase 2; experiment: Inhibition of N-terminal GST-tagged recombinant human full length MNK2 expressed in baculovirus expression system incubated for 1 hr by Kinase Tracer 236 based LanthaScreen Eu kinase binding assay relative to control
Target sequence in this assay (Q9HBH9 whole entry): as the sequence (Q9HBH9 whole entry, looked up) above

[3] = tested on: MOLM-13; experiment: Cytotoxicity against human MOLM-13 cells assessed as reduction in cell viability after 72 hrs by MTT assay; assay type: functional, cell-based; settings: MOLM-13, 72 h
[4] = tested on: MV4-11; experiment: Cytotoxicity against human MV4-11 cells assessed as reduction in cell viability after 72 hrs by MTT assay; assay type: functional, cell-based; settings: MV4-11, 72 h
[5] = target: T2, MAP kinase-interacting serine/threonine-protein kinase 1 (Homo sapiens, UniProt Q9BUB5); experiment: Inhibition of GST-tagged recombinant human full length MNK1 expressed in insect cells at 10 uM relative to control
Target sequence in this assay (Q9BUB5 whole entry, looked up): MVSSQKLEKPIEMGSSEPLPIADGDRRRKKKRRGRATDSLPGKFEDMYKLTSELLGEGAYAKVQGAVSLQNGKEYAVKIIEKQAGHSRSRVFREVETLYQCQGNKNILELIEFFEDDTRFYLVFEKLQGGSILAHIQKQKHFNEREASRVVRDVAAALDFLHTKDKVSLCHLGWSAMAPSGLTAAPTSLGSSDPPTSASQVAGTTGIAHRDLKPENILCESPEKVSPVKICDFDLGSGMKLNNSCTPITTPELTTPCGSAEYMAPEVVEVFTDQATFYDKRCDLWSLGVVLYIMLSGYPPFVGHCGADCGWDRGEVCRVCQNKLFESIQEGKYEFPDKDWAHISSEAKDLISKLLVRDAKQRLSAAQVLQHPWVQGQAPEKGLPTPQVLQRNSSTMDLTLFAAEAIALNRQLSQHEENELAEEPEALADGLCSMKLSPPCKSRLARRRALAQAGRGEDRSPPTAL

[6] = target: T2, MAP kinase-interacting serine/threonine-protein kinase 1; experiment: Inhibition of GST-tagged recombinant human full length MNK1 expressed in insect cells
Target sequence in this assay (Q9BUB5 whole entry): as the sequence (Q9BUB5 whole entry, looked up) above

[7] = target: T3, MAP kinase-interacting serine/threonine-protein kinase 1/2 (Homo sapiens) (UniProt Q9HBH9+Q9BUB5); experiment: Inhibition of MNK1/MNK2 in human MV4-11 cells assessed as reduction in eIF4E phosphorylation reduction in eIF4E phosphorylation after 24 to 48 hrs by Western blot analysis; assay type: cell-based; settings: dose microM 1-30, time hrs 24-48
[8] = target: T3, MAP kinase-interacting serine/threonine-protein kinase 1/2 (Homo sapiens); experiment: Inhibition of MNK1/MNK2 in human MOLM-13 cells assessed as reduction in eIF4E phosphorylation reduction in eIF4E phosphorylation after 24 to 48 hrs by Western blot analysis; assay type: cell-based; settings: dose microM 1-30, time hrs 24-48
[9] = target: T3, MAP kinase-interacting serine/threonine-protein kinase 1/2 (Homo sapiens); experiment: Inhibition of MNK1/MNK2 in human MV4-11 cells assessed as reduction in eIF4E phosphorylation reduction in eIF4E phosphorylation at 30 uM after 24 to 48 hrs by Western blot analysis; assay type: cell-based; settings: time hrs 24-48
[10] = target: T3, MAP kinase-interacting serine/threonine-protein kinase 1/2 (Homo sapiens); experiment: Inhibition of MNK1/MNK2 in human MOLM-13 cells assessed as reduction in eIF4E phosphorylation reduction in eIF4E phosphorylation at 30 uM after 24 to 48 hrs by Western blot analysis; assay type: cell-based; settings: time hrs 24-48
[11] = tested on: MV4-11; experiment: Induction of cell cycle arrest in human MV4-11 cells assessed as increase in accumulation at sub-G1 phase at 3 to 30 uM after 72 hrs by propidium iodide staining based flow cytometric analysis; assay type: functional; settings: dose microM 3-30, time 72.0 hrs
[12] = tested on: MOLM-13; experiment: Induction of cell cycle arrest in human MOLM-13 cells assessed as increase in accumulation at sub-G1 phase at 3 to 30 uM after 72 hrs by propidium iodide staining based flow cytometric analysis; assay type: functional; settings: dose microM 3-30, time 72.0 hrs
[13] = tested on: MV4-11; experiment: Induction of cell death in human MV4-11 cells assessed as increase in accumulation at sub-G1 phase after 72 hrs by propidium iodide staining based flow cytometric analysis; assay type: functional; settings: dose microM 1-30, time 72.0 hrs
[14] = tested on: MOLM-13; experiment: Induction of cell death in human MOLM-13 cells assessed as increase in accumulation at sub-G1 phase after 72 hrs by propidium iodide staining based flow cytometric analysis; assay type: functional; settings: dose microM 1-30, time 72.0 hrs
[15] = tested on: MOLM-13; experiment: Induction of apoptosis in human MOLM-13 cells assessed as increase in cleaved PARP level after 72 hrs by Western blot analysis; assay type: functional, cell-based; settings: dose microM 1-30, time 72.0 hrs
[16] = tested on: MV4-11; experiment: Induction of apoptosis in human MV4-11 cells assessed as increase in cleaved PARP level after 72 hrs by Western blot analysis; assay type: functional, cell-based; settings: dose microM 1-30, time 72.0 hrs
[17] = tested on: MOLM-13; experiment: Induction of apoptosis in human MOLM-13 cells assessed as increase in cleaved caspace-3 level after 72 hrs by Western blot analysis; assay type: functional, cell-based; settings: dose microM 1-30, time 72.0 hrs
[18] = tested on: MV4-11; experiment: Induction of apoptosis in human MV4-11 cells assessed as increase in cleaved caspace-3 level after 72 hrs by Western blot analysis; assay type: functional, cell-based; settings: dose microM 1-30, time 72.0 hrs
[19] = target: T3, MAP kinase-interacting serine/threonine-protein kinase 1/2 (Homo sapiens); experiment: Inhibition of MNK1/MNK2 in human MV4-11 cells assessed as reduction in eIF4E phosphorylation reduction in eIF4E phosphorylation at 10 uM after 24 to 48 hrs by Western blot analysis; assay type: cell-based; settings: time hrs 24-48
[20] = target: T3, MAP kinase-interacting serine/threonine-protein kinase 1/2 (Homo sapiens); experiment: Inhibition of MNK1/MNK2 in human MOLM-13 cells assessed as reduction in eIF4E phosphorylation reduction in eIF4E phosphorylation at 10 uM after 24 to 48 hrs by Western blot analysis; assay type: cell-based; settings: time hrs 24-48
[21] = tested on: MV4-11; experiment: Induction of cell cycle arrest in human MV4-11 cells assessed as increase in accumulation at sub-G1 phase at 1 to 30 uM after 72 hrs by propidium iodide staining based flow cytometric analysis; assay type: functional; settings: dose microM 1-30, time 72.0 hrs
[22] = tested on: MV4-11; experiment: Induction of cell cycle arrest in human MV4-11 cells assessed as increase in accumulation at sub-G1 phase at 30 uM after 72 hrs by propidium iodide staining based flow cytometric analysis relative to control; assay type: functional
[23] = tested on: MOLM-13; experiment: Induction of cell cycle arrest in human MOLM-13 cells assessed as increase in accumulation at sub-G1 phase at 1 to 30 uM after 72 hrs by propidium iodide staining based flow cytometric analysis; assay type: functional; settings: dose microM 1-30, time 72.0 hrs
[24] = tested on: MOLM-13; experiment: Induction of cell cycle arrest in human MOLM-13 cells assessed as increase in accumulation at sub-G1 phase at 30 uM after 72 hrs by propidium iodide staining based flow cytometric analysis relative to control; assay type: functional

Structure (SMILES): COc1cc(O)c(C(=O)/C=C/c2ccc(C(=O)O)cc2)c(OC)c1
- inhibition [1]: > 70%
- IC50 [2]: 3.7 µM

Structure (SMILES): O=c1c(O)c(-c2ccncc2)oc2ccc(Cl)cc12
- inhibition [1]: > 70%
- IC50 [2]: 6.49 µM

Structure (SMILES): COc1ccc(C(=O)/C=C/c2ccc(O)c(Br)c2)cc1
- inhibition [1]: > 70%
- IC50 [2]: 4.67 µM

Structure (SMILES): COc1cc2c(c(OC)c1CC=C(C)C)C(=O)CC(c1ccc(OC)c(OC)c1C/C=C(\C)CCC=C(C)C)O2 (centres undefined)
- inhibition [1]: > 70%
- IC50 [2]: 8.26 µM

Structure (SMILES): COc1ccc(-c2oc3cc(OC)c(OC)c(O)c3c(=O)c2O)cc1O
- inhibition [1]: > 70%
- IC50 [2]: 1.7 µM

Structure (SMILES): COc1cc(O)c(C(=O)/C=C/c2ccccc2)c(OC)c1
- inhibition [1]: > 50%

Structure (SMILES): COc1ccc(-c2cc(=O)c3c(O)cc(O)cc3o2)cc1
- inhibition [1]: > 50%

Structure (SMILES): COc1ccc(-c2cc(=O)c3ccc(O)cc3o2)cc1OC
- inhibition [1]: > 50%

Structure (SMILES): O=C(/C=C/c1cccc(O)c1)c1ccccc1O
- inhibition [1]: > 50%

Structure (SMILES): O=c1cc(-c2ccccc2)oc2cc(O)ccc12
- inhibition [1]: > 50%

Structure (SMILES): O=c1cc(-c2ccc(O)cc2)oc2cc(O)cc(O)c12 [APIGENIN]
- inhibition [1]: > 70%
- IC50 [2]: 0.308 µM

Structure (SMILES): COc1cc(O)c2c(=O)cc(-c3ccc(O)cc3)oc2c1 [GENKWANIN]
- inhibition [1]: > 70%
- IC50 [2]: 0.979 µM
- IC50 [3]: > 10 µM
- IC50 [4]: > 10 µM

Structure (SMILES): COc1c(O)cc2oc(-c3ccc(O)cc3)cc(=O)c2c1O [HISPIDULIN]
- inhibition [1]: 93%
- IC50 [2]: 0.252 µM
- inhibition [5]: > 70%
- IC50 [6]: 1.2 µM
- inhibition [7]: Dose-dependent effect
- inhibition [8]: Dose-dependent effect
- inhibition [9]: 100%
- inhibition [10]: 100%
- Activity [11]: Active
- Activity [12]: Active
- Activity [13]: Active
- Activity [14]: Active
- IC50 [3]: 6.4 µM
- IC50 [4]: 8.2 µM
- Activity [15]: Dose-dependent effect
- Activity [16]: Dose-dependent effect
- Activity [17]: Dose-dependent effect
- Activity [18]: Dose-dependent effect

Structure (SMILES): O=c1cc(-c2ccc(O)c(O)c2)oc2cc(O)cc(O)c12 [LUTEOLIN]
- inhibition [1]: > 70%
- IC50 [2]: 0.579 µM
- inhibition [5]: > 70%
- IC50 [6]: 0.179 µM
- inhibition [7]: Dose-dependent effect
- inhibition [8]: Dose-dependent effect
- inhibition [19]: 100%
- inhibition [20]: 100%
- Activity [21]: Active
- Activity [22]: >80%
- Activity [23]: Active
- Activity [24]: >80%
- Activity [13]: Active
- Activity [14]: Active
- IC50 [3]: 4.5 µM
- IC50 [4]: 3.1 µM
- Activity [15]: Dose-dependent effect
- Activity [16]: Dose-dependent effect
- Activity [17]: Dose-dependent effect
- Activity [18]: Dose-dependent effect
